≈ marks a conversion by molar mass, not a printed value.
Legend:
Experiment in all cases: Minimum Inhibitory Concentration (MIC), agar dilution in Mueller Hinton Agar
Assay type in all cases: cell-based
Citrobacter Freundli = details: 20 h, culture number 3507
Procedure: (§1) The compounds of this invention and their respective pharmaceutically acceptable salts have antibiotic activity against a variety of gram-negative bacteria including Escherichia coli, Klebsiella pneumoniae, and Pseudomonas aeruginosa. The compounds are useful for treating bacterial infections in animals, including and most preferably humans. Compounds of the invention are tested for in vitro antimicrobial activity using standard testing procedures such as the determination of minimum inhibitory concentration (MIC) by methods described in "Methods for Dilution Antimicrobial Susceptibility Tests for Bacteria That Grow Aerobically" (M7-A) Published December 1985 by the National Committee for Clinical Laboratory Standards, 771 East Lancaster Avenue, Villanova, Pa. 19084. Briefly, MIC values are determined in unsupplemented Mueller Hinton Agar (MHA). The compounds tested are diluted serially into molten MHA at 47° C. The agar is poured into petri dishes and allowed to harden. The various bacteria used for testing are grown overnight on MHA at 35° C. and transferred to Tryptiease Soy Broth (TSB) until a turbidity of 0.5 McFarland standard is obtained. The bacteria are diluted one to twenty in TSB and inoculated on the plates (1 μl using a Steers replicator).

Enterobacter Cloacae = details: 20 h
Procedure: as §1

Escherichia Coli = details: 20 h
Procedure: as §1

Klebsiella Oxytoca = details: 20 h
Procedure: as §1

Klebsiella Pneumoniae = details: 20 h, culture number 58
Procedure: as §1

Proteus Vulgaris = details: 20 h, culture number 9679
Procedure: as §1

Pseudomonas Aeruginosa = details: 20 h
Procedure: as §1

Serratia Marcescens = details: 20 h, culture number 6888
Procedure: as §1

Staphylococcus Aureus = details: 20 h
Procedure: as §1

[1] = test system: Staphylococcus epidermidis; details: 20 h, culture number 30031
Procedure: as §1

Streptococcus Faecalis = details: Enterococcus faecalis, 20 h; culture number 694
Procedure: as §1

Streptococcus Pneumoniae = details: 20 h, culture number 41
Procedure: as §1

Streptococcus Pyogenes = details: 20 h, culture number 152
Procedure: as §1

| MIC (Citrobacter Freundli) | MIC (Enterobacter Cloacae; culture number 9381) | MIC (Enterobacter Cloacae; culture number 9382) | MIC (Escherichia Coli; culture number 9379) | MIC (Escherichia Coli; culture number 9380) | MIC (Escherichia Coli; culture number 9451) | MIC (Klebsiella Oxytoca; culture number 9383) | MIC (Klebsiella Oxytoca; culture number 9384) | MIC (Klebsiella Pneumoniae) | MIC (Proteus Vulgaris) | MIC (Pseudomonas Aeruginosa; culture number 231) | MIC (Pseudomonas Aeruginosa; culture number 9191) | MIC (Serratia Marcescens) | MIC (Staphylococcus Aureus; culture number 3665) | MIC (Staphylococcus Aureus; culture number 6685) | MIC (Staphylococcus Aureus; culture number 9218) | MIC (Streptococcus Faecalis) | MIC (Streptococcus Pneumoniae) | MIC (Streptococcus Pyogenes) | Structure (SMILES) | also measured |
| --- | --- | --- | --- | --- | --- | --- | --- | --- | --- | --- | --- | --- | --- | --- | --- | --- | --- | --- | --- | --- |
| 0.25 µg/mL (≈ 0.381 µM) | 64 µg/mL (≈ 97.5 µM) | 1 µg/mL (≈ 1.52 µM) | 0.5 µg/mL (≈ 0.762 µM) | 1 µg/mL (≈ 1.52 µM) | 0.5 µg/mL (≈ 0.762 µM) | 2 µg/mL (≈ 3.05 µM) | 0.5 µg/mL (≈ 0.762 µM) | 0.5 µg/mL (≈ 0.762 µM) | 0.25 µg/mL (≈ 0.381 µM) | 64 µg/mL (≈ 97.5 µM) | 64 µg/mL (≈ 97.5 µM) | 2 µg/mL (≈ 3.05 µM) | > 64 µg/mL | > 64 µg/mL | > 64 µg/mL | > 64 µg/mL | > 64 µg/mL | 64 µg/mL (≈ 97.5 µM) | Nc1nc(/C(=N/OCC(=O)O)C(=O)N[C@H]2CN(C(=O)NS(=O)(=O)N3CCN(NC(=O)c4[nH]ccc(=O)c4O)C3=O)C2=O)cs1 [Compound E40, Acetic acid, [[[1-(2-amino-4-thiazolyl)-2-[[1-[[[[3-[[(1,4-dihydro-3-hydroxy-4-oxo-2-pyridinyl)carbonyl]amino]-2-oxo-1-imidazolidinyl]sulfonyl]-amino]carbonyl]-2-oxo-3-azetidinyl]amino]-2-oxoethylidene]amino]oxy]-, [S-(Z)]-] | MIC (Staphylococcus Aureus; culture number 9213): > 64 µg/mL; MIC [1]: > 64 µg/mL |
| 0.5 µg/mL (≈ 0.69 µM) | 64 µg/mL (≈ 88.3 µM) | 4 µg/mL (≈ 5.52 µM) | 0.06 µg/mL (≈ 0.0828 µM) | 0.03 µg/mL (≈ 0.0414 µM) | 0.125 µg/mL (≈ 0.172 µM) | 1 µg/mL (≈ 1.38 µM) | 0.5 µg/mL (≈ 0.69 µM) | 2 µg/mL (≈ 2.76 µM) | 2 µg/mL (≈ 2.76 µM) | 16 µg/mL (≈ 22.1 µM) | 16 µg/mL (≈ 22.1 µM) | 0.5 µg/mL (≈ 0.69 µM) | > 64 µg/mL | > 64 µg/mL | > 64 µg/mL | > 64 µg/mL | > 64 µg/mL | 64 µg/mL (≈ 88.3 µM) | CC(C)(O/N=C(\C(=O)N[C@H]1CN(C(=O)NS(=O)(=O)N2CCN(NC(=O)c3cc(=O)c(O)cn3C3CC3)C2=O)C1=O)c1csc(N)n1)C(=O)O [Compound E42, Propanoic acid, 2-[[[1-(2-amino-4-thiazolyl)-2-[[1-[[[[3-[[(1-cyclopropyl-1,4-dihydro-5-hydroxy-4-oxo-2-pyridinyl)carbonyl]amino]-2-oxo-1-imidazolidinyl]sulfonyl]amino]carbonyl]-2-oxo-3-azetidinyl]amino]-2-oxoethylidene]amino]oxy]-2-methyl-, [S-(Z)]-] |  |
| 0.06 µg/mL (≈ 0.0876 µM) | 16 µg/mL (≈ 23.4 µM) | 1 µg/mL (≈ 1.46 µM) | < 0.008 µg/mL | < 0.008 µg/mL | < 0.008 µg/mL | 0.125 µg/mL (≈ 0.183 µM) | 0.03 µg/mL (≈ 0.0438 µM) | 0.5 µg/mL (≈ 0.73 µM) | 0.06 µg/mL (≈ 0.0876 µM) | 0.25 µg/mL (≈ 0.365 µM) | 0.125 µg/mL (≈ 0.183 µM) | 0.06 µg/mL (≈ 0.0876 µM) | > 64 µg/mL | > 64 µg/mL | > 64 µg/mL | > 64 µg/mL | > 64 µg/mL | 16 µg/mL (≈ 23.4 µM) | CC(C)(O/N=C(\C(=O)N[C@H]1CN(C(=O)NS(=O)(=O)N2CCN(C(=O)c3cc(=O)c(O)c[nH]3)NC2=O)C1=O)c1csc(N)n1)C(=O)O [Compound E18, Propanoic acid, 2-[[[1-(2-amino-4-thiazolyl)-2-[[1-[[[[1-[(1,4-dihydro-5-hydroxy-4-oxo-2-pyridinyl)carbonyl]tetrahydro-3-oxo-1,2,4-triazin-4(1H)-yl]sulfonyl]amino]carbonyl]-2-oxo-3-azetidinyl]amino]-2-oxoethylidene]amino]oxy]-2-methyl-[S-(Z)]-] |  |
| 0.25 µg/mL (≈ 0.365 µM) | 64 µg/mL (≈ 93.5 µM) | 0.5 µg/mL (≈ 0.73 µM) | 0.25 µg/mL (≈ 0.365 µM) | 0.25 µg/mL (≈ 0.365 µM) | 0.125 µg/mL (≈ 0.183 µM) | 4 µg/mL (≈ 5.84 µM) | 0.25 µg/mL (≈ 0.365 µM) | 0.25 µg/mL (≈ 0.365 µM) | 0.03 µg/mL (≈ 0.0438 µM) | 1 µg/mL (≈ 1.46 µM) | 1 µg/mL (≈ 1.46 µM) | 0.5 µg/mL (≈ 0.73 µM) | > 64 µg/mL | > 64 µg/mL | > 64 µg/mL | > 64 µg/mL | 64 µg/mL (≈ 93.5 µM) | 4 µg/mL (≈ 5.84 µM) | CC(C)(O/N=C(\C(=O)N[C@H]1CN(C(=O)NS(=O)(=O)N2CCN(NC(=O)c3ccn(O)c(=O)c3)C2=O)C1=O)c1csc(N)n1)C(=O)O [E42 (d), Propanoic acid, 2-[[[1-(2-amino-4-thiazolyl)-2-[[1-[[[[3-[[(1,2-dihydro-1-hydroxy-2-oxo-4-pyridinyl)carbonyl]amino]2-oxo-1-imidazolidinyl]sulfonyl]amino]carbonyl]-2-oxo-3-azetidinyl]amino]-2-oxoethylidene]amino]oxy]-2-methyl-, [S-(Z)]-] |  |

Reference: US4975538A, “Antibiotic sulfonylaminocarbonyl activated beta-lactams” (The Upjohn Company, priority 1989, dated 1990)
